The record followed here is US20240287147A1, “PD-L1 BINDING PEPTIDES AND PEPTIDE COMPLEXES AND METHODS OF USE THEREOF” (Fred Hutchinson Cancer Center, priority 2020, published 2024).

For this assay, the system named is PC3 tumors. Particulars: PC3, second cohort, T cells + 1 nmol or 0.1 nmol.

With durvalumab, the “effect on PC3 flank tumors” value is given as “no effect”.
